{"source": "patent US20100143937A1", "about": "(priority 2007, published 2010)", "target": "T1, NAPE-PLD (Homo sapiens, UniProt Q6IQ20)", "T1 construct": "made in house; host or cells: baculovirus/insect cells, pDEST8.1 vector; purified by metal chelating chromatography", "T1 sequence (Q6IQ20 with tags, fused parts or gaps)": "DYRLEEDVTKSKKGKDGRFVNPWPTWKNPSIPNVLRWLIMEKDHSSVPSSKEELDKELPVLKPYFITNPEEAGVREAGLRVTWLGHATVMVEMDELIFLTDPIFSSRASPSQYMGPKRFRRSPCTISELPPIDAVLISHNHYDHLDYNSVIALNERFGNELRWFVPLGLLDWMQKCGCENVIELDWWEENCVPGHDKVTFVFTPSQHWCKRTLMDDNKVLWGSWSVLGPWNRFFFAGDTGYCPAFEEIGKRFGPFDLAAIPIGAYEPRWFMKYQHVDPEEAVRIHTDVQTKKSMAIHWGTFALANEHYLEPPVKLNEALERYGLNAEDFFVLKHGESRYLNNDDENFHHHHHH", "experiment": "NAPE-PLD PED6 fluorescence assay, Km determination", "assay_type": "biochemical", "settings": "substrate PED6 with NAPE-PLD; FIG. 8", "description": "General assay conditions use the following final concentrations of the following material: NAPE-PLD at 14 nM, PED6 (substrate) at 10 μM, test compounds at 10 μM, DMSO at 1%. PED6 is purchased (see Table 1) as a lyophilized powder and stored at −20° C. A fresh substrate solution should be prepared daily. 1 mg of PED6 is dissolved in 0.88 ml of ethyl acetate and diluted into 43.12 ml assay buffer to make is a 20 μM working solution. PED6 must be kept out of direct light, as it is light sensitive.\nTest compounds are diluted in an appropriate buffer. A non-limiting example is 50 mM Tris-HCl, pH 8.0, the buffer may contain DMSO, for instance, 10% DMSO. Assay buffer was 50 mM Tris-HCl, pH 8.0, 0.05% Triton X-100 and stop solution is 0.4 M HCl, 0.05% Triton X-100.\nOrder of addition of reagents and equipment used: • 1) Dilute enzyme (NAPE-PLD, 22 μM) to 28 nM in assay buffer. • 2) Prepare substrate (20 μM in assay buffer). • 3) Add 10 μl NAPE-PLD to assay plate using FLEXDROP. • 4) Add 2 μl compound (from compound plate) to appropriate wells of assay plate using Cy-Bio. • 5) Incubate plates, covered, at room temperature for 30 minutes (compound preincubation). • 6) Add 10 μl PED6 to assay plate using FLEXDROP. • 7) Incubate plates, covered, at room temperature for 30 minutes (enzyme reaction) • 8) Terminate the reaction by adding 20 μl of stop solution, using FLEXDROP • 9) Read on LJL Acquest. […]", "data": [{"smiles": "CCCCCCCCCCCCCCCC(=O)OC[C@H](COP(=O)(O)OCCNC(=O)CCCCCNc1ccc([N+](=O)[O-])cc1[N+](=O)[O-])OC(=O)CCCCC1=[N+]2C(=Cc3c(C)cc(C)n3[B-]2(F)F)C=C1", "note": "[PED6]", "values": [{"measurement": "Km", "result": 3.9, "unit": "µM"}]}]}
